Assay results reported in patent publication US11517622B2, “Combination of regorafenib and PD-1/PD-L1(2) inhibitors for treating cancer” (BAYER AKTIENGESELLSCHAFT, priority 2017, dated 2022).

Experiments:
[1] = test system: MC38 syngeneic tumors; assay: Antitumor activity in syngenic murine MC38 CRC model (subcutaneous tumors); type: in vivo, mice
Procedure: The combinatorial activity of regorafenib and anti-mouse PD-1 antibody (RMP1-14, Peng et al., Cancer Res., (2012) 72(20), 5209-5218) was investigated in a syngenic murine MC38 CRC model
MC38 syngeneic tumors were grown subcutaneously in mice and treated with regorafenib and/or anti-mouse PD-1 antibody (RMP1-14) according to the following regimens: […]
Control animals were treated concomitantly with the regorafenib vehicle (PluronicF68/PEG400/Propylenglycol (15/42,5/42,5+20% aqua)) and a non-binding isotype control antibody (rat IgG2a, clone 2A3). Tumor growth was monitored by caliper measurement and the tumor area was calculated using the formula a×b where a and b are the long and short diameters of the tumor, respectively. Tumor weights were measured after completion of the study. Tumor vs control (T/C) was calculated using vehicle treated animals as reference.

[2] = test system: CT26 syngeneic tumors; assay: Liver metastases in syngenic murine CT26 CRC model (orthotopic tumors); type: in vivo, mice
Procedure: The combinatorial activity of regorafenib and anti-mouse PD-1 antibody (RMP1-14, Peng et al., Cancer Res., (2012) 72(20), 5209-5218) was investigated in a syngenic murine CT26 CRC model
CT26 syngeneic tumors were grown orthotopically in mice (Abou-Elkacem et al., Mol Cancer Ther. 2013 July; 12(7):1322-31) and treated with regorafenib and/or anti-mouse PD-1 antibody (RMP1-14) according to the following regimens:
a) regorafenib alone at a dose of 30 mg/kg per day once daily for 10 days as a PluronicF68/PEG400/Propylenglycol/water (12/34/34/20) po (per oral) formulation using the formulation vehicle alone as control or in a combination with an unspecific control antibody given intraperitoneally (i.p.) at a dose of 20 mg/kg in PBS every third day. b) anti-mouse PD-1 antibody (RMP1-14) alone dosed at 20 mg/kg every third day for four times as a PBS i.p. formulation and an unspecific antibody was used as control c) in combination, regorafenib at a dose of 20 mg/kg per day once daily for 10 days as a PluronicF68/PEG400/Propylenglycol/water (/12/34/34/20) p.o. formulation and anti-mouse PD-1 antibody (RMP1-14) dosed at 20 mg/kg every third day for four times as a PBS i.p. formulation,
Mice were sacrificed at the end of treatment or at the end of the observation period and livers were screened macroscopically for metastases on their surface. The number of mice with liver metastases was then related to the total number of mice in the respective study arm.

[3] = d 14 p.i., after treatment, single agent
[4] = d 25 p.i., observation period after treatment stop at d 14, regorafenib plus control antibody

For `CNC(=O)c1cc(Oc2ccc(NC(=O)Nc3ccc(Cl)c(C(F)(F)F)c3)c(F)c2)ccn1` [Regorafenib, 4{4-[3-(4-chloro-3-trifluoromethylphenyl)-ureido]-3-fluorophenoxy}-pyridine-2-carboxylic acid methylamide], which “T/C (area)” value ([1]; regimen a): regorafenib 3 mg/kg po once daily for 15 days plus isotype control 10 mg/kg ip, tumor area vs vehicle) is on record?
The value was 0.68.

What about the “T/C (weight)” value ([1]; regimen a): regorafenib 3 mg/kg po once daily for 15 days plus isotype control 10 mg/kg ip, tumor weight at study end vs vehicle) of the same compound?
The value was 0.64.

And the “growth of MC38 tumors vs control” value ([1]; single agents)?
Its value is “inhibited the growth of MC38 tumors vs control”.

What about the “# of animals with mets” value [2, 3] of the same compound?
Its value is 0.

What about the “% animals wirth mets” value [2, 3] of the same compound?
The value was 0%.

What about the “# of animals with mets” value [2, 4] of the same compound?
Its value is 8.

And the “% animals wirth mets” value [2, 4]?
Its value is 100%.
